From ChEMBL document CHEMBL1201862, “PubChem BioAssay data set” (2004)
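Assay format: 96-well plates, 48-hour exposure. At the GI50, growth is halved.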 Activity calls are given as the source filed them. Cut-off read from the data, not from the text of the source: active = GI50 up to about 1.1 µM and inactive = higher.

Key:
Assay in all cases: growth of human tumour cells (NCI), 48 h
K562 = test system: K562
PC-3 = test system: PC-3
MDA-MB-231 = test system: MDA-MB-231
SNB-78 = test system: SNB-78
COLO 205 = test system: COLO 205
Malme-3M = test system: Malme-3M
MOLT-4 = test system: MOLT-4
HCT-15 = test system: HCT-15
LXFL 529 = test system: LXFL 529
XF498 = test system: XF498
KM-20L2 = test system: KM-20L2
DMS-273 = test system: DMS-273
DU-145 = test system: DU-145
MDA-N = test system: MDA-N
CCRF-CEM = test system: CCRF-CEM
SW-620 = test system: SW-620
NCI-H460 = test system: NCI-H460
HOP-92 = test system: HOP-92
SK-MEL-28 = test system: SK-MEL-28
MDA-MB-435 = test system: MDA-MB-435

Compound | GI50 (K562) | GI50 (PC-3) | GI50 (MDA-MB-231) | GI50 (SNB-78) | GI50 (COLO 205) | GI50 (Malme-3M) | GI50 (MOLT-4) | GI50 (HCT-15) [µM] | GI50 (LXFL 529) | GI50 (XF498) | GI50 (KM-20L2) | GI50 (DMS-273) | GI50 (DU-145) | GI50 (MDA-N) | GI50 (CCRF-CEM) | GI50 (SW-620) | GI50 (NCI-H460) | GI50 (HOP-92) | GI50 (SK-MEL-28) | GI50 (MDA-MB-435)
C/C(=N\NC(=S)N1CCN(c2ccccn2)CC1)c1ncccn1 | 0.00711 µM (active) | 4.37 µM (inactive) | 0.0214 µM (active) | 6.05 µM (inactive) | 0.0569 µM (active) | 0.267 µM (active) | 0.0116 µM (active) | 0.02 | 0.001 µM (active) | 0.0247 µM (active) | 0.00984 µM (active) | 0.0114 µM (active) | 2.51 µM (inactive) | 6.93 µM (inactive) | 0.00615 µM (active) | 0.196 µM (active) | 0.0726 µM (active) | 1.63 µM (inactive) | 0.417 µM (active) | 2.83 µM (inactive)
N#Cc1cc([N+](=O)[O-])ccc1NC(=O)C(=O)Nc1n[nH]c(N)n1 | > 100 µM (inactive) |  |  | > 100 µM (inactive) | > 100 µM (inactive) | > 100 µM (inactive) | > 100 µM (inactive) | > 100 | > 100 µM (inactive) | > 100 µM (inactive) | > 100 µM (inactive) | > 100 µM (inactive) |  |  | > 100 µM (inactive) | > 100 µM (inactive) | > 100 µM (inactive) | > 100 µM (inactive) | > 100 µM (inactive) | 
CCOC(=O)C/C(N)=C(\C#N)C(=O)OCC | > 100 µM (inactive) |  |  | > 100 µM (inactive) | > 100 µM (inactive) | > 100 µM (inactive) | > 100 µM (inactive) | > 100 | > 100 µM (inactive) | > 100 µM (inactive) | > 100 µM (inactive) | > 100 µM (inactive) |  |  | > 100 µM (inactive) | > 100 µM (inactive) | > 100 µM (inactive) | > 100 µM (inactive) | > 100 µM (inactive) | 
